Where only a bound is given, the exact number is not on record here.

In this assay the target is HPK1 (Homo sapiens (Human), UniProt Q92918). Description: HPK1 Kinase Binding Assay. Put shortly:
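This is a LanthaScreen tracer-binding format: a tracer 222/Eu-anti-GST antibody mix (18 nM and 4 nM solution) is added to active HPK1 (4 nM solution) with 3-fold, 11-point compound dilutions. Incubation is 1 h at 25 °C in HEPES pH 7.5 buffer before reading, and Ki is determined.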

Sequence of HPK1 (Q92918 1-346): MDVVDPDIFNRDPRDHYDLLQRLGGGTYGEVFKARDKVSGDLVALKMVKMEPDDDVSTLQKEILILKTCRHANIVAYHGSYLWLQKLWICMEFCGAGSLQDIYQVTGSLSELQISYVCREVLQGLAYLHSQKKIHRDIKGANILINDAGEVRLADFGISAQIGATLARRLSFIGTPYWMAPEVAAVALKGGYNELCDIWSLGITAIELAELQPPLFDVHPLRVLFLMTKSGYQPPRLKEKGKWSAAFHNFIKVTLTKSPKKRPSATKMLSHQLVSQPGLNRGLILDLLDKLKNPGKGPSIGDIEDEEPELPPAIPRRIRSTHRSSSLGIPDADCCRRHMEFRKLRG

As to `CC(C(=O)Nc1cc(F)c(-c2cc3c(-c4cnn(C)c4)n[nH]c3cn2)c(F)c1)N1CCCC1` (stereo not drawn) [Example 70, N-(3,5-Difluoro-4-(3-(1-methyl-1H-pyrazol-4-yl)-1H-pyrazolo[3,4-c]pyridin-5-yl)phenyl)-2-(pyrrolidin-1-yl)propanamide], the inhibitory constant (Ki) was at most 0.1 µM.
The value for `COc1cc(NC(=O)OC2CCN(C)CC2)cc(F)c1-c1cc2c(-c3cnn(C)c3)n[nH]c2cn1` [Example 76, 1-Methylpiperidin-4-yl 3-fluoro-5-methoxy-4-(3-(1-methyl-1H-pyrazol-4-yl)-1H-pyrazolo[3,4-c]pyridin-5-yl)phenylcarbamate] was at most 0.1 µM; that for `Cc1cc(CNCc2cocn2)cc(F)c1-c1cc2c(-c3cnn(C)c3)n[nH]c2cn1` [Example 187, N-(3-Fluoro-5-methyl-4-(3-(1-methyl-1H-pyrazol-4-yl)-1H-pyrazolo[3,4-c]pyridin-5-yl)benzyl)-1-(oxazol-4-yl)methanamine] was at most 0.1 µM.
Regarding `Cn1cc(-c2n[nH]c3cnc(-c4c(F)cc(OCC5CCN5)cc4F)cc23)cn1` (stereo not drawn) [Example 106, 5-(4-(Azetidin-2-ylmethoxy)-2,6-difluorophenyl)-3-(1-methyl-1H-pyrazol-4-yl)-1H-pyrazolo[3,4-c]pyridine], the Ki was at most 0.1 µM.
The value for `Cn1cc(-c2n[nH]c3cnc(-c4c(F)cc(NC(=O)CN5C6CCC5CC6)cc4F)cc23)cn1` [Example 68, 2-(7-Azabicyclo[2.2.1]heptan-7-yl)-N-(3,5-difluoro-4-(3-(1-methyl-1H-pyrazol-4-yl)-1H-pyrazolo[3,4-c]pyridin-5-yl)phenyl)acetamide] was at most 0.1 µM; that for `Cc1cc(CN2CCC(O)C2)cc(F)c1-c1cc2c(-c3cnn(C)c3)n[nH]c2cn1` (stereo not drawn) [Example 183, 1-(3-Fluoro-5-methyl-4-(3-(1-methyl-1H-pyrazol-4-yl)-1H-pyrazolo[3,4-c]pyridin-5-yl)benzyl)pyrrolidin-3-ol] was at most 0.1 µM.
With `CC(C)NCc1cccc(-c2cc3c(-c4cnn(C)c4)n[nH]c3cn2)c1C(F)(F)F` [Example 91, N-(3-(3-(1-Methyl-1H-pyrazol-4-yl)-1H-pyrazolo[3,4-c]pyridin-5-yl)-2-(trifluoromethyl)benzyl)propan-2-amine], the inhibitory constant (Ki) is at most 0.1 µM.
The value for `CNC1CCc2c1cc(F)c(-c1cc3c(-c4cnn(C)c4)n[nH]c3cn1)c2F` (stereo not drawn) [Example 198, 4,6-Difluoro-N-methyl-5-(3-(1-methyl-1H-pyrazol-4-yl)-1H-pyrazolo[3,4-c]pyridin-5-yl)-2,3-dihydro-1H-inden-1-amine] was at most 0.1 µM; that for `CN1CCN(c2ccc(-c3n[nH]c4cnc(-c5c(F)cc(F)cc5F)cc34)cc2)CC1` [Example 46, 3-(4-(4-Methylpiperazin-1-yl)phenyl)-5-(2,4,6-trifluorophenyl)-1H-pyrazolo[3,4-c]pyridine] was at most 0.1 µM.
The figure for `Cc1cc(CNC(C)C)cc(F)c1-c1cc2c(-c3cnn(C)c3)n[nH]c2cn1` [Example 178, N-(3-Fluoro-5-methyl-4-(3-(1-methyl-1H-pyrazol-4-yl)-1H-pyrazolo[3,4-c]pyridin-5-yl)benzyl)propan-2-amine] is at most 0.1 µM; for `CNC1CCCc2c1ccc(F)c2-c1cc2c(-c3ccc(N4CCN(C)CC4)cc3)n[nH]c2cn1` (stereo not drawn) [Example 209, 6-Fluoro-N-methyl-5-(3-(4-(4-methylpiperazin-1-yl)phenyl)-1H-pyrazolo[3,4-c]pyridin-5-yl)-1,2,3,4-tetrahydronaphthalen-1-amine] it is at most 0.1 µM.
The value for `CNCc1cc(C)c(-c2cc3c(-c4ccc(N5CCCC(OC)C5)nc4)n[nH]c3cn2)c(F)c1` (stereo not drawn) [Example 114, 1-(3-Fluoro-4-(3-(6-(3-methoxypiperidin-1-yl)pyridin-3-yl)-1H-pyrazolo[3,4-c]pyridin-5-yl)-5-methylphenyl)-N-methylmethanamine] was at most 0.1 µM; that for `CCn1cc(-c2n[nH]c3cnc(-c4c(C)cc(C5CCCCN5)cc4F)cc23)cn1` (single isomer, unassigned) [Example 230, 3-(1-Ethyl-1H-pyrazol-4-yl)-5-(2-fluoro-6-methyl-4-(piperidin-2-yl)phenyl)-1H-pyrazolo[3,4-c]pyridine] was at most 0.1 µM.
Regarding `COc1cccc(C(=O)Nc2n[nH]c3cnc(-c4c(F)cccc4OC)cc23)c1` [Example 9, N-(5-(2-Fluoro-6-methoxyphenyl)-1H-pyrazolo[3,4-c]pyridin-3-yl)-3-methoxybenzamide], the Ki is at most 0.1 µM.
Turning to `Cn1cc(-c2n[nH]c3cnc(-c4c(F)cc(CNCCO)cc4F)cc23)cn1` [Example 126, 2-(3,5-Difluoro-4-(3-(1-methyl-1H-pyrazol-4-yl)-1H-pyrazolo[3,4-c]pyridin-5-yl)benzylamino)ethanol], the inhibition constant Ki is at most 0.1 µM.
The figure for `Cc1cc(CNC2CC2)cc(F)c1-c1cc2c(-c3cnn(C)c3)n[nH]c2cn1` [Example 177, N-(3-Fluoro-5-methyl-4-(3-(1-methyl-1H-pyrazol-4-yl)-1H-pyrazolo[3,4-c]pyridin-5-yl)benzyl)cyclopropanamine] is at most 0.1 µM; for `COc1cccc(F)c1-c1cc2c(-c3cc(C)no3)n[nH]c2cn1` [Example 35, 5-(5-(2-Fluoro-6-methoxyphenyl)-1H-pyrazolo[3,4-c]pyridin-3-yl)-3-methylisoxazole] it is at most 0.1 µM.
On to `Cn1cc(-c2n[nH]c3cnc(-c4c(F)cc(OC(=O)N5CCOCC5)cc4F)cc23)cn1` [Example 110, 3,5-Difluoro-4-(3-(1-methyl-1H-pyrazol-4-yl)-1H-pyrazolo[3,4-c]pyridin-5-yl)phenyl morpholine-4-carboxylate], for which the Ki was at most 0.1 µM.
With `CNCc1cccc(-c2cc3c(-c4cnn(C)c4)n[nH]c3cn2)c1C(F)(F)F` [Example 88, N-Methyl-1-(3-(3-(1-methyl-1H-pyrazol-4-yl)-1H-pyrazolo[3,4-c]pyridin-5-yl)-2-(trifluoromethyl)phenyl)methanamine], the Ki was at most 0.1 µM.
The figure for `CN1CCN(c2ccc(-c3n[nH]c4cnc(-c5c(F)cccc5CN)cc34)cc2)CC1` [Example 195, (3-Fluoro-2-(3-(4-(4-methylpiperazin-1-yl)phenyl)-1H-pyrazolo[3,4-c]pyridin-5-yl)phenyl)methanamine] is at most 0.1 µM; for `CNCc1ccc(F)c(-c2cc3c(-c4cnn(C)c4)n[nH]c3cn2)c1C(F)(F)F` [Example 225, 1-(4-Fluoro-3-(3-(1-methyl-1H-pyrazol-4-yl)-1H-pyrazolo[3,4-c]pyridin-5-yl)-2-(trifluoromethyl)phenyl)-N-methylmethanamine] it is at most 0.1 µM; for `CNCCc1ccc(F)c(-c2cc3c(-c4cnn(C)c4)n[nH]c3cn2)c1F` [Example 97, 2-(2,4-Difluoro-3-(3-(1-methyl-1H-pyrazol-4-yl)-1H-pyrazolo[3,4-c]pyridin-5-yl)phenyl)-N-methylethanamine] it is at most 0.1 µM.
The value for `COc1cccc(Cl)c1-c1cc2c(-c3ccc(N4CCN(C)CC4)cc3)n[nH]c2cn1` [Example 52, 5-(2-Chloro-6-methoxyphenyl)-3-(4-(4-methylpiperazin-1-yl)phenyl)-1H-pyrazolo[3,4-c]pyridine] was at most 0.1 µM.
For `CCOc1cccc(F)c1-c1cc2c(-c3ccc(N4CCN(C)CC4)cc3)n[nH]c2cn1` [Example 51, 5-(2-Ethoxy-6-fluorophenyl)-3-(4-(4-methylpiperazin-1-yl)phenyl)-1H-pyrazolo[3,4-c]pyridine], the Ki is at most 0.1 µM.
The value for `CCN1CCN(c2cccc(C(=O)Nc3n[nH]c4cnc(-c5c(F)cccc5OC)cc34)c2)CC1` [Example 20, 3-(4-Ethylpiperazin-1-yl)-N-(5-(2-fluoro-6-methoxyphenyl)-1H-pyrazolo[3,4-c]pyridin-3-yl)benzamide] was at most 0.1 µM; that for `CNCc1cc(F)c(-c2cc3c(-c4ccc(C5CC5)nc4)n[nH]c3cn2)c(C(F)(F)F)c1` [Example 120, 1-(4-(3-(6-Cyclopropylpyridin-3-yl)-1H-pyrazolo[3,4-c]pyridin-5-yl)-3-fluoro-5-(trifluoromethyl)phenyl)-N-methylmethanamine] was at most 0.1 µM; that for `CN1CCN(c2ccc(-c3n[nH]c4cnc(-c5c(F)cccc5CC#N)cc34)cc2)CC1` [Example 194, 2-(3-Fluoro-2-(3-(4-(4-methylpiperazin-1-yl)phenyl)-1H-pyrazolo[3,4-c]pyridin-5-yl)phenyl)acetonitrile] was at most 0.1 µM.
The value for `COc1cccc(F)c1-c1cc2c(NC(=O)c3ccc(F)cc3)n[nH]c2cn1` [Example 5, 4-Fluoro-N-(5-(2-fluoro-6-methoxyphenyl)-1H-pyrazolo[3,4-c]pyridin-3-yl)benzamide] was at most 0.1 µM; that for `CNCc1cc(F)c(-c2cc3c(-c4ccc(N5CCOCC5)nc4)n[nH]c3cn2)c(C(F)(F)F)c1` [Example 121, 1-(3-Fluoro-4-(3-(6-morpholinopyridin-3-yl)-1H-pyrazolo[3,4-c]pyridin-5-yl)-5-(trifluoromethyl)phenyl)-N-methylmethanamine] was at most 0.1 µM; that for `COc1cccc(F)c1-c1cc2c(NC(=O)c3cccc(N4CCN(C)C(=O)C4)c3)n[nH]c2cn1` [Example 19, N-(5-(2-Fluoro-6-methoxyphenyl)-1H-pyrazolo[3,4-c]pyridin-3-yl)-3-(4-methyl-3-oxopiperazin-1-yl)benzamide] was at most 0.1 µM.
On to `COc1cccc(F)c1-c1cc2c(NC(=O)c3ccccc3)n[nH]c2cn1` [Example 1, N-(5-(2-Fluoro-6-methoxyphenyl)-1H-pyrazolo[3,4-c]pyridin-3-yl)benzamide], for which the Ki was at most 0.1 µM.
The figure for `Cn1cc(-c2n[nH]c3cnc(-c4c(F)cc(NC(=O)CN5CCCC5)cc4Cl)cc23)cn1` [Example 73, N-(3-Chloro-5-fluoro-4-(3-(1-methyl-1H-pyrazol-4-yl)-1H-pyrazolo[3,4-c]pyridin-5-yl)phenyl)-2-(pyrrolidin-1-yl)acetamide] is at most 0.1 µM; for `Cc1cc(C2CCCN2C)cc(F)c1-c1cc2c(-c3cnn(C)c3)n[nH]c2cn1` (stereo not drawn) [Example 173, 5-(2-Fluoro-6-methyl-4-(1-methylpyrrolidin-2-yl)phenyl)-3-(1-methyl-1H-pyrazol-4-yl)-1H-pyrazolo[3,4-c]pyridine] it is at most 0.1 µM.
